Literature values in PMC9920808, “Impact of the Substitution Pattern at the Basic Center and Geometry of the Amine Fragment on 5-HT6 and D3R Affinity in the 1H-Pyrrolo[3,2-c]quinoline Series” (Molecules, 2023).

Assays:
human D3R = human D3R (Homo sapiens, UniProt P35462); set-up: method as in PMID 30896921; conditions: data taken from ref 26, cited from earlier work
5-HT6R = conditions: Figure 1; ref 25 (SB737050), ref 19 (I), ref 26 (PZ-1643), ref 27 (CPPQ); cited from earlier work
human 5-HT6R = biological target: T1, human 5-HT6R (Homo sapiens, UniProt P50406); set-up: method as in PMID 30896921; conditions: HEK293 cells, data taken from ref 26; cited from earlier work
T1 construct: expressed in transfected cells
T1 sequence (P50406 whole entry): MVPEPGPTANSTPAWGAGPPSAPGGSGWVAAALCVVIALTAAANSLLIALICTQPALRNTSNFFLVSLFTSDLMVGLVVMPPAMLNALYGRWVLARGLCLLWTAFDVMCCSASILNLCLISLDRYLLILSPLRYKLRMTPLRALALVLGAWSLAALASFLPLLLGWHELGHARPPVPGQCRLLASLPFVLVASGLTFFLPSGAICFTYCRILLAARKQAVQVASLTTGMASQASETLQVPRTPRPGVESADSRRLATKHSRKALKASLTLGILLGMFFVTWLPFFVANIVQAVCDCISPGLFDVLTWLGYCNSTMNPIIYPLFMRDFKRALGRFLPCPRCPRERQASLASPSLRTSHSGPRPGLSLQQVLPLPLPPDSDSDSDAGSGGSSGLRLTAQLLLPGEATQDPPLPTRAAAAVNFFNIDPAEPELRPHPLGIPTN

D2R = conditions: Figure 1; ref 25 (SB737050), ref 19 (I), ref 26 (PZ-1643), ref 27 (CPPQ); cited from earlier work
D3R = biological target: D3R; set-up: method as in earlier work; conditions: Figure 1; ref 25 (SB737050), ref 19 (I), ref 26 (PZ-1643); cited from earlier work

Chain of human D3R (P35462 whole entry): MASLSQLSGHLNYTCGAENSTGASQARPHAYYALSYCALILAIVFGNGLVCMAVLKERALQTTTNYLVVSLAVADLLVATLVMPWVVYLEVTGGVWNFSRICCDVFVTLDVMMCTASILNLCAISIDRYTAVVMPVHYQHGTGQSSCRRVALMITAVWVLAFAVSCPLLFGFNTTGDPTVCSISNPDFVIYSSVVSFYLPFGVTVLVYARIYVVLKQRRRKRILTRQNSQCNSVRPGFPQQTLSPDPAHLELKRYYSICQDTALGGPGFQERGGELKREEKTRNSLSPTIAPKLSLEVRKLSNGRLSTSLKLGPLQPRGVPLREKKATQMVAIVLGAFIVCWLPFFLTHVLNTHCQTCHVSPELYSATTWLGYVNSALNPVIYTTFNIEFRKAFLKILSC

Q: With `CC(C)CN1CC[C@H](Nc2nc3ccccc3c3c2ccn3S(=O)(=O)c2cccc(Cl)c2)C1` [PZ-1643] as the molecule, how does the “%inh Binding to D3R @1μM” value (human D3R; percentage displacement at 10^-6 M) read?
A: The value was 98%.

Q: And the Ki (human D3R; printed in parentheses after %inh, read-out: D3R affinity value in parentheses (Ki))?
A: The Ki was 7 nM.

Q: And the “pKi 5-HT6R” value (5-HT6R)?
A: Its value is 7.6.

Q: What about the Ki (human 5-HT6R) of the same molecule?
A: Its Ki is 27 nM.

Q: What about the “pKi D2R” value (D2R) of the same molecule?
A: Its value is 6.5.

Q: What about the “pKi D3R” value (D3R) of the same molecule?
A: Its value is 8.2.
